Laboratory results: patent US7781593B2, “5-phenyl-nicotinamide derivatives” (Hoffmann-La Roche Inc., priority 2006, dated 2010)

Experiments:
[1] = target: T1, human cannabis CB1 receptor (Homo sapiens, UniProt P21554); assay: Affinity for cannabinoid CB1 receptors, [3H]-CP-55,940 radioligand binding on HEK cell membranes
T1 construct: expressed in transfected cells; host or cells: human embryonic kidney (HEK) cells, Semliki Forest Virus system, membrane preparation
Method: The affinity of the compounds of the invention for cannabinoid CB1 receptors was determined using membrane preparations of human embryonic kidney (HEK) cells in which the human cannabis CB1 receptor is transiently transfected using the Semliki Forest Virus system in conjunction with [3H]-CP-55,940 as radioligand. After incubation of a freshly prepared cell membrane preparation with the [3H]-ligand, with or without addition of compounds of the invention, separation of bound and free ligand was performed by filtration over glassfiber filters. Radioactivity on the filter was measured by liquid scintillation counting.
The compounds of formula (I) show an excellent affinity for the CB1 receptor, determined with the experimental conditions described in Devane et al. Mol. Pharmacol. 34 (1988) 605-613.

[2] = doses of 10 and 20 mg daily; cited from earlier work
[3] = wild-type versus CB1 receptor knockout mice; cited from earlier work

T1 sequence (P21554 whole entry): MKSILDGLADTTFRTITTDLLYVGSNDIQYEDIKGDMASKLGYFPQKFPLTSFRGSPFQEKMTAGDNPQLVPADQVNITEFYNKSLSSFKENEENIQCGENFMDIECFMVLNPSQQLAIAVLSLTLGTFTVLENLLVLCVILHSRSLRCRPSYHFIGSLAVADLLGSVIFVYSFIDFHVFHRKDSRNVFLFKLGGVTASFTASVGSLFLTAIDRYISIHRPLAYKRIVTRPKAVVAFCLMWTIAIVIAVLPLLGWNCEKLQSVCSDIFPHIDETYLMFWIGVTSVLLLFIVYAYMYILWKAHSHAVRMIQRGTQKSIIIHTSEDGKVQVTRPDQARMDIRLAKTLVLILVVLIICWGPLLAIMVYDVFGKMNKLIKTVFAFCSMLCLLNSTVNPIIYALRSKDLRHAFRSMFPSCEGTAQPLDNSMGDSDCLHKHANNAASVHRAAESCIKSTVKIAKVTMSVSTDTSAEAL

Compound	Ki [1] [nM]	body weight compared to placebo [2]	food intake [3]
O=C(N[C@@H]1CCCC[C@H]1O)c1cnc(CCC2CC2)c(-c2ccc(Cl)cc2)c1 [Example 2, 5-(4-Chloro-phenyl)-6-(2-cyclopropyl-ethyl)-N-((1R,2R)-2-hydroxy-cyclohexyl)-nicotinamide]	26		
O=C(N[C@@H]1CCCC[C@H]1O)c1cnc(CCc2cncnc2)c(-c2ccc(C(F)(F)F)cc2)c1 [Example 3, N-((1R,2R)-2-Hydroxy-cyclohexyl)-6-(2-pyrimidin-5-yl-ethyl)-5-(4-trifluoromethyl-phenyl)-nicotinamide]	60		
O=C(N[C@@H]1CCCC[C@H]1O)c1cnc(CCc2cccnc2)c(-c2ccc(Cl)cc2)c1 [Example 7, 5-(4-Chloro-phenyl)-N-((1R,2R)-2-hydroxy-cyclohexyl)-6-(2-pyridin-3-yl-ethyl)-nicotinamide]	11		
Cc1c(C(=O)NN2CCCCC2)nn(-c2ccc(Cl)cc2Cl)c1-c1ccc(Cl)cc1 [SR 141716]		significantly reduced body weight	reduces food intake in wild-type but not knockout mice
